Assay results published in US20190223479A1, “SUGAR-DIPEPTIDE CONJUGATES AS FLAVOR MOLECULES” (NESTEC S.A., priority 2016, published 2019).
Entries after “also recorded” stand apart in the source; their conditions may differ.

What was measured:
[1] = Sensory evaluation by 12 panelists of chicken soup spiked with the compounds; settings: versus un-spiked reference soup; for Flavor property in chicken soup (2 g/l): compound added at 2 g/l
Description: Sample preparation: Chicken soups were prepared by dissolving 6 g chicken base powder (detailed recipe shown in Table 1), 1 g monosodium glutamate and 1 g of sodium chloride in 500 mL hot water. The compounds were separately added at 2 g/l and 0.25 g/l.
Sensory protocol: The sensory evaluation was carried out by 12 panelists, previously screened for their sensory abilities. The panelists assessed a maximum of 6 samples per session. They had Vittel water and crackers as mouth cleansers. In all the cases, the panelists were instructed to evaluate the samples on the following attributes: overall flavor persistency, umami, meaty, grilled/popcorn, boiled chicken, sweet, bitter, salty. The samples were coded with random 3-digit numbers according to a balanced presentation design, heated at approximately 65° C. and then presented in 40 ml brown plastic containers and under red light to minimize appearance bias (the serving was approximately 25 ml per sample).

[2] = Sensory comparison by 6 panelists (nose-clips) of soup with sugar conjugate vs equimolar glucose and lysine; settings: 2 g/L (6.49 mmol/L) in soup base versus same molar concentrations of glucose and lysine
Description: A first soup was prepared by adding 2 g/L (6.49 mmol/L) 1-deoxy-D-fructosyl-N-Lysine (GluAmadori-Lys2) in the soup base as described above. A second soup was prepared by adding same corresponding molar concentrations of glucose and lysine. The solutions were then evaluated by 6 panelists following the same procedure than described above with using nose-clips.

[3] = Tomato soup seasoning compositions with added compound; settings: 0.5 g/L or 2.5 g/L, versus reference soups without the compounds
Description: Tomato soups can be prepared by dissolving 6 g tomato base powder as can be obtained in the commerce in 500 mL hot water. GluAmadori-Lys1 or GluAmadori-Lys2 can then be added at a concentration of 0.5 g/L or 2.5 g/L to the soups in order to improve their taste and flavor profile. […] For example, a similar tomato soup can now be prepared which has the same saltiness as the reference tomato soup but comprising less sodium chloride.

[4] = described by T. Sonntag et al.; cited from earlier work

## N[C@@H](CCCCNCC1(O)OCC(O)C1O)C(=O)O (stereo partly drawn) [RibAmadori-Lys2, N6-((2,3,4-trihydroxytetrahydrofuran-2-yl)methyl)lysine]
[1]
  Flavor property in chicken soup (2 g/l): enhanced roasted flavor

## NCCCC[C@H](NCC1(O)OCC(O)C1O)C(=O)O (stereo partly drawn) [RibAmadori-Lys1, ((2,3,4-trihydroxytetrahydrofuran-2-yl)methyl)lysine]
[1]
  Flavor property in chicken soup (2 g/l): baked and roasted flavors were significantly increased; also recorded: baked, roasted flavor

## 1-deoxy-D-fructosyl-N-Lysine [GluAmadori-Lys2]
[1]
  Flavor property in chicken soup (2 g/l): enhanced saltiness, umaminess and overall flavor persistency
[2]
  Sensory differences: more salty and umami
[3]
  Taste and flavor profile of tomato soup: more pronounced umami taste as well as being perceived as more salty

## NCCCC[C@H](NCC1(O)OCC(O)C1O)C(=O)O (stereo partly drawn) [XylAmadori-Lys1, ((2,3,4-trihydroxytetrahydrofuran-2-yl)methyl)lysine]
[1]; compound added at 0.25 g/l
  Flavor property in chicken soup (0.25 g/l): baked and roasted flavors were significantly increased
[1]
  Flavor property in chicken soup (2 g/l): baked and roasted flavors were significantly increased; also recorded: baked, roasted flavor

## N[C@@H](CCCCNCC1(O)OCC(O)C1O)C(=O)O (stereo partly drawn) [XylAmadori-Lys2, N6-((2,3,4-trihydroxytetrahydrofuran-2-yl)methyl)lysine]
[1]
  Flavor property in chicken soup (2 g/l): enhanced meat flavor

## NCCCC[C@H](N)C(=O)O [L-lysine]
[4]
  Taste quality: bitter tasting compound
